Measured values as given in patent US20230404969A1, “COMPOSITIONS AND METHOD FOR EFFECTIVE MANAGEMENT OF PERITONITIS” (priority 2022, published 2023).

Tests used:
[1] = test system: TNF-α; experiment: Intracellular TNF-α estimation in LPS activated murine neutrophils (flow cytometry); assay type: cell-based; settings: 5 μg/ml, LPS 1 μg/ml, 3 h, ↑ upregulation
Protocol: Flowcytometric studies were carried out to determine the anti-inflammatory effect of active constituents of Withania somnifera extract on TNF-α and IL-1β cytokine expression in LPS activated murine neutrophils.
TNF-α and Interleukin 1 beta (IL-1β) cytokines play a major role in the pathogenesis of septic shock induced by LPS (Lipopolysaccharide) endotoxin injection. LPS is an important triggering factor for in vivo systemic inflammatory response. LPS activates neutrophils via engagement of TLR4 (Toll-like receptor 4), resulting in the induction of a characteristic proinflammatory phenotype and prolongation of cell lifespan. In brief, neutrophils extraction was performed by taking murine blood and centrifuging it at 250 g for 20 min. Middle layer was taken and layered with histopaque and incubated for 10 min. The samples were centrifuged at 700 g, the upper layer was taken and Facs Lysing solution added for the lysis of any traces of RBC. The samples were washed with PBS (200 g) for 10 min. Neutrophils were stimulated with. LPS (1 μg/ml) and incubated with test samples for 3 h, in CO2 incubator. […] A fluorescence trigger was set on the […] parameter of the gated neutrophil populations (10,000 events). Fluorescence compensation, data analysis, and data presentation was performed using Cell Quest Pro software (Beckton—Dickinson Biosciences, CA, USA). […]

[2] = test system: IL-6; experiment: Cytometric Bead Array of peritoneal fluid, chronic zymosan peritonitis: IL-6; assay type: in vivo, mouse; settings: 2 mg/kg, vs Zymosan control
Protocol: (§1) Peritoneal inflammation was induced by Zymosan A (Sigma Chemical) (Masashi et al. Zymosan, but Not Lipopolysaccharide, Triggers Severe and Progressive Peritoneal Injury Accompanied by complement Activation in a Rat Peritonitis Model) was prepared freshly in sterile, 0.9% w/v saline, and 0.5 ml was injected i.p. from day 0 to Day 5. The lymphocyte population in the peripheral blood was determined with a flow cytometer. Cells were phenotyped by flow cytometry with the following primary antibodies: CD4 (FITC) and CD8 (PE). Cells were gated broadly on all live lymphocyte cells, with only debris and multiple cell clusters being excluded. Analysis of mean fluorescence intensity was done and percentage cell population was evaluated. […]
(§2) The Cytometric Bead Array (Mouse Inflammation kit) was used to study cytokines in peritoneal fluid. […] Briefly, a mixture of 6 capture bead populations (50 μl) with distinct fluorescence intensities (detected in FL3) coated with antibodies specific for the above cytokines was mixed with each sample/standard (50 μl). […] Following acquisition of data by two colour cytometric analysis, the sample results were analysed using CBA software (BD Biosciences). […] Individual cytokine concentration ratios were indicated by their fluorescent intensities and was determined by interpolation from the corresponding standard curve.

[3] = test system: MCP-1; experiment: Cytometric Bead Array of peritoneal fluid, chronic zymosan peritonitis: MCP-1; assay type: in vivo, mouse; settings: 2 mg/kg, vs Zymosan control
Protocol: as §1, §2

[4] = test system: IFN-γ; experiment: Cytometric Bead Array of peritoneal fluid, chronic zymosan peritonitis: IFN-γ; assay type: in vivo, mouse; settings: 2 mg/kg, vs Zymosan control
Protocol: as §1, §2

[5] = test system: Lactobacillus acidophilus (Gram positive); experiment: Bacterial translocation from the gut into organs: L. acidophilus; assay type: in vivo; settings: Withanone 2 mg/kg; positive/6 mice
Protocol: (§3) Peritoneal inflammation was induced by Zymosan A (Sigma Chemical) (Masashi et al. Zymosan, but Not Lipopolysaccharide, Triggers Severe and Progressive Peritoneal Injury Accompanied by complement Activation in a Rat Peritonitis Model) was prepared freshly in sterile, 0.9% w/v saline, and 0.5 ml was injected i.p. from day 0 to Day 5. The lymphocyte population in the peripheral blood was determined with a flow cytometer. Cells were phenotyped by flow cytometry with the following primary antibodies: CD4 (FITC) and CD8 (PE). Cells were gated broadly on all live lymphocyte cells, with only debris and multiple cell clusters being excluded. Analysis of mean fluorescence intensity was done and percentage cell population was evaluated. The test drugs were administered for 30 days after the induction of peritonitis. On 36th day the peritoneal cavity was lavaged with 1.5 ml saline, and after a 30-s gentle manual massage, 0.5 ml exudate was retrieved, centrifuged at 3000 g for 3 min, and frozen at […] prior to cytokine and chemotactic-factor assessment.
(§4) Intestine serves as a barrier in preventing gut bacteria and/or endotoxin from spreading to organs and tissues. It is also known that bacterial translocation occurs in critically ill or immunocompromised patients, and the physical disruption of mucosal barrier in vivo rodent models seem to be a key factor Tor translocation (Deitch et al. Effect of hemorrhagic shock on bacterial translocation, intestinal morphology, and intestinal permeability in conventional and antibiotic-decontaminated rats; Critical Care Medicine; 1990 18(5)). Bacterial translocation from the gut into the peritoneal cavity and organs was analyzed. The mesenteric lymph nodes, liver, and spleen of mice, study group of 30, were removed using sterile instruments. The organs were then homogenized in 1 ml of sterile cooked meat broth and 50 μl of organ homogenate was spread on blood agar plates to detect aerobic bacteria and Eosin Methylene blue agar plates to detect specially for E. coli. These plates were then incubated at 37° C. for 2 days. […]

[6] = test system: Klebsiella pneumoniae (Gram-negative); experiment: Bacterial translocation from the gut into organs: K. pneumoniae; assay type: in vivo; settings: Withanone 2 mg/kg; positive/6 mice
Protocol: as §3, §4

[7] = test system: Membrane attack complex (MAC); experiment: Membrane attack complex in peritoneal exudate (ELISA), chronic zymosan peritonitis; assay type: in vivo, mouse; settings: 2 mg/kg, day 36
Protocol: as §3
Assembly of Membrane attack complex (MAC) results from the complex pathway starting from C5 convertase cleaving C5 to form C5a and C5b. […] The protein concentrations were carried out by means of colorimetric measurement at 450 nm on an ELISA plate reader by interpolation from a standard curve. […]

`CC1=C(C)C(=O)O[C@@H]([C@@H](C)[C@@]2(O)CC[C@H]3[C@@H]4[C@@H]5O[C@@H]5[C@@]5(O)CC=CC(=O)[C@]5(C)[C@H]4CC[C@@]32C)C1` [Withanone] was tested, and the “Percentage TNF-α inhibition compared to LPS control” value [1] was 53%, the “Inhibition of IL-6” value [2] was 61% and the “Inhibition of MCP-1” value [3] was 51%. For the same compound, the “Inhibition of IFN-γ” value [4] was 44%, the “Bacterial translocation, Liver, L. acidophilus” value [5] was 1/6 and the “Bacterial translocation, Mesenteric Lymph Nodes, L. acidophilus” value [5] was 1/6. For the same compound, the “Bacterial translocation, Spleen, L. acidophilus” value [5] was 1/6, the “Bacterial translocation, Liver, k. pneumonia” value [6] was 0/6 and the “Bacterial translocation, Mesenteric Lymph Nodes, k. pneumonia” value [6] was 0/6. For the same compound, the “Bacterial translocation, Spleen, k. pneumonia” value [6] was 1/6 and the “Decrease of expression levels of MAC compared to the Zymosan control” value [7] was 56%.
